This is an account of results in US11566007B2, “Ras inhibitors” (Revolution Medicines, Inc., priority 2019, dated 2023).

One experiment relates to NCI-H358 (K-Ras G12C). Briefly: CellTiter-Glo cell viability assay, NCI-H358. The experiment is classed as cell-based, human. The following applies: Homo sapiens, NCI-H358, 120 h, NCI-H358, 5-day treatment; class symbols; read-out: Additional H358 Cell Viability assay data (K-Ras G12C, IC50). In short, it runs like this:
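Compounds dispensed directly onto seeded K-Ras mutant cells; plates read on day 5 after ~30 min equilibration to room temperature, by CellTiter-Glo luminescence. Signal normalized as (sample/mean DMSO)×100, then fitted to a four-parameter logistic curve.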

In a further experiment the target is K-Ras G12C (Homo sapiens (Human), UniProt P01116+P62937, G12C). The experiment is described as follows: Ras-Raf (BRAF RBD) disruption / FRET / MOA assay, KRAS G12C. Type of experiment: biochemical. The conditions noted are these: KRAS G12C; Ras-Raf disruption/FRET/MOA assay; read-out: IC50* KRAS G12C FRET data. The procedure, abridged: (§1)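 Compounds, top final concentration 30 μM in 10-point 3-fold series, incubated 3 hours at 25° C with nucleotide-loaded Ras, cyclophilin A and BRAF RBD.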
Sequence of K-Ras G12C (P01116-2 other isoform, or with tags, fused parts or gaps G12C): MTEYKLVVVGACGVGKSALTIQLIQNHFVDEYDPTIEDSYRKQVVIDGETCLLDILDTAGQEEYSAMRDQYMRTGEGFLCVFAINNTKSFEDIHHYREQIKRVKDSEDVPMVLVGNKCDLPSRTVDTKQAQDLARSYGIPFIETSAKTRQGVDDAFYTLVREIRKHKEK
Sequence of K-Ras G12C (P62937 whole entry): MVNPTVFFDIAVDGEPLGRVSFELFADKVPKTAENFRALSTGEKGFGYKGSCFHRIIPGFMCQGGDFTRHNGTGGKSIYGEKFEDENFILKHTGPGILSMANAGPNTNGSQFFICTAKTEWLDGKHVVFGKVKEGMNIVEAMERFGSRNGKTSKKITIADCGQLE

Another experiment deals with K-Ras G13C (Homo sapiens (Human), UniProt P01116+P62937, G13C). Briefly: Ras-Raf (BRAF RBD) disruption / FRET / MOA assay, KRAS G13C. Type of experiment: biochemical. The following applies: KRAS G13C; Ras-Raf disruption/FRET/MOA assay; read-out: IC50* KRAS G13C FRET data. The procedure, abridged: as §1
Sequence of K-Ras G13C (P01116-2 other isoform, or with tags, fused parts or gaps G13C): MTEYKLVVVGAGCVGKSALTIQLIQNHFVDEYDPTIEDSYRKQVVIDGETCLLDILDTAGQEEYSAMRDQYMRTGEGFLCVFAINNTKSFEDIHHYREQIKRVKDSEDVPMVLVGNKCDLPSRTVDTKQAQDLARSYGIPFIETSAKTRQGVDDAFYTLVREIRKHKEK
Sequence of K-Ras G13C (P62937 whole entry): as the sequence (P62937 whole entry) above
For a further experiment, the target named is KRAS G12D (Homo sapiens (Human), UniProt P01116+P62937, G12D). The experiment is described as follows: Ras-Raf (BRAF RBD) disruption / FRET / MOA assay, KRAS G12D. The following applies: Ras-Raf disruption/FRET/MOA assay; class symbols; read-out: KRAS G12D FRET data IC50. The experiment is classed as biochemical. The procedure, abridged: as §1
Sequence of KRAS G12D (P01116-2 other isoform, or with tags, fused parts or gaps G12D): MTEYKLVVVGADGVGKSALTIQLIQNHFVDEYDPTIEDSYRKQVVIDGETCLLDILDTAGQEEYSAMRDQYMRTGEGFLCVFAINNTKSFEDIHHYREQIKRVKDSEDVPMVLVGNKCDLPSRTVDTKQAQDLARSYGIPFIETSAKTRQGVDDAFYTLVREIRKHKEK
Sequence of KRAS G12D (P62937 whole entry): as the sequence (P62937 whole entry) above
A further experiment addresses KRAS G12V (Homo sapiens (Human), UniProt P01116+P62937, G12V). Briefly: Ras-Raf (BRAF RBD) disruption / FRET / MOA assay, KRAS G12V. The experiment is classed as biochemical. The following applies: read-out: IC50* KRAS G12V FRET data. In short, it runs like this: as §1
In a further experiment the target is KRAS WT (Homo sapiens (Human), UniProt P01116+P62937). The experiment is described as follows: Ras-Raf (BRAF RBD) disruption / FRET / MOA assay, KRAS WT. The experiment is classed as biochemical. The following applies: read-out: IC50* KRAS WT FRET data. In short, it runs like this: as §1
Sequence of KRAS WT (P01116-2 other isoform, or with tags, fused parts or gaps): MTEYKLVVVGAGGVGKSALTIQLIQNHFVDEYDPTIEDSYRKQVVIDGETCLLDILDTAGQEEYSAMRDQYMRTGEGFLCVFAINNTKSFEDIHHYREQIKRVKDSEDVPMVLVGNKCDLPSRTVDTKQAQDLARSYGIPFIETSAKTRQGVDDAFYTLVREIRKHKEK
Sequence of KRAS WT (P62937 whole entry): as the sequence (P62937 whole entry) above
A further experiment addresses KRAS G13D (Homo sapiens (Human), UniProt P01116+P62937, G13D). Briefly: Ras-Raf (BRAF RBD) disruption / FRET / MOA assay, KRAS G13D. The conditions noted are these: read-out: IC50* KRAS G13D FRET data. Type of experiment: biochemical. In short, it runs like this:
as §1

The target in the next experiment is KRAS Q61H (Homo sapiens (Human), UniProt P01116+P62937, Q61H). Briefly: Ras-Raf (BRAF RBD) disruption / FRET / MOA assay, KRAS Q61H. Type of experiment: biochemical. The following applies: Ras-Raf disruption/FRET/MOA assay; class symbols; read-out: KRAS Q61H FRET data IC50. The procedure, abridged: (§2)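 TR-FRET disruption of nucleotide-loaded Ras binding to BRAF RBD via compound-driven ternary complex with cyclophilin A. Compound as 10-point 3-fold series from 30 μM final, 3 h at 25° C, then anti-His Eu-W1024 (10 nM) and anti-GST allophycocyanin (50 nM) for 1.5 h. IC50 from decreased FRET ratio versus DMSO.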
Sequence of KRAS Q61H (P01116-2 other isoform, or with tags, fused parts or gaps Q61H): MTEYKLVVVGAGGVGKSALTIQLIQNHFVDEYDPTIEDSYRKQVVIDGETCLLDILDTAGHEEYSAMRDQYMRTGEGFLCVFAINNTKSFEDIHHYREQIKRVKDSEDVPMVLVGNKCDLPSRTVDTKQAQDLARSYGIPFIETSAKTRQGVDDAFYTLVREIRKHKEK
Sequence of KRAS Q61H (P62937 whole entry): as the sequence (P62937 whole entry) above

A further experiment has as its target NRAS Q61R (Homo sapiens (Human), UniProt P01111+P62937, Q61R). Briefly: Ras-Raf (BRAF RBD) disruption / FRET / MOA assay, NRAS Q61R. The experiment is classed as biochemical. The following applies: NRAS Q61R; Ras-Raf disruption/FRET/MOA assay; read-out: IC50* NRAS Q61R FRET data. The procedure, abridged:
as §2

The target of a further experiment is NRAS WT (Homo sapiens (Human), UniProt P01111+P62937). Briefly: Ras-Raf (BRAF RBD) disruption / FRET / MOA assay, NRAS WT. Type of experiment: biochemical. The conditions noted are these: read-out: IC50* NRAS WT FRET data. The procedure, abridged: as §2
Sequence of NRAS WT (P01111 whole entry): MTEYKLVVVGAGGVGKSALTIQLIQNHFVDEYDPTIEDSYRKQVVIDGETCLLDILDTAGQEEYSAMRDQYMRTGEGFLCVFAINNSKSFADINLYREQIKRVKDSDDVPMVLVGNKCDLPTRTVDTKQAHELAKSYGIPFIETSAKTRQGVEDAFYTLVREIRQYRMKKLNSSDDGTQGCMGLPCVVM
Sequence of NRAS WT (P62937 whole entry): as the sequence (P62937 whole entry) above

Sequence of KRAS G12V (P01116-2 other isoform, or with tags, fused parts or gaps G12V): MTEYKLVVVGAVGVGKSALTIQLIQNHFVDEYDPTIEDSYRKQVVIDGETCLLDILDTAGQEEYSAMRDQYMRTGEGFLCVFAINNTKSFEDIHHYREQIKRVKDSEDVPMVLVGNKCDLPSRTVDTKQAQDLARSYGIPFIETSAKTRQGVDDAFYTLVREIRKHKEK
Sequence of KRAS G12V (P62937 whole entry): as the sequence (P62937 whole entry) above
Sequence of KRAS G13D (P01116-2 other isoform, or with tags, fused parts or gaps G13D): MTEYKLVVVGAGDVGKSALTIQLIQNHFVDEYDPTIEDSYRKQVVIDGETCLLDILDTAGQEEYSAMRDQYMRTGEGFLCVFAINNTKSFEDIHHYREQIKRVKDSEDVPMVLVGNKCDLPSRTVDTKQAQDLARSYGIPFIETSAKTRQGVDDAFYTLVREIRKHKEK
Sequence of KRAS G13D (P62937 whole entry): as the sequence (P62937 whole entry) above
Sequence of NRAS Q61R (P01111 whole entry Q61R): as the sequence (P01111 whole entry) above, with Q61R counted along it
Sequence of NRAS Q61R (P62937 whole entry): as the sequence (P62937 whole entry) above

For `C=CC(=O)N1CCC2(CC1)CCN2C(=O)N(C)[C@H](C(=O)N[C@H]1Cc2nc(cs2)-c2ccc3c(c2)c(c(-c2cccnc2[C@H](C)OC)n3CC)CC(C)(C)COC(=O)[C@@H]2CCCN(N2)C1=O)C(C)C` (atropisomer, axis not shown) [Example A678], the IC50 – broadly, the concentration needed to halve the response being measured – with NCI-H358 (K-Ras G12C) is 10 to 100 nM; on K-Ras G12C, 10 to 100 nM; on K-Ras G13C, 100 to 1000 nM; on KRAS G12D, 100 to 1000 nM; at KRAS G12V, 100 to 1000 nM; at KRAS WT, 100 to 1000 nM. Further, the IC50 was 100 to 1000 nM on KRAS G13D, 10 to 100 nM on KRAS Q61H, 10 to 100 nM at NRAS Q61R and 100 to 1000 nM at NRAS WT.

`CCn1c(-c2cccnc2[C@H](C)OC)c2c3cc(ccc31)-c1csc(n1)C[C@H](NC(=O)[C@H](C(C)C)N(C)C(=O)N1CCC3(CC1)CN(C(=O)/C=C/C(F)F)C3)C(=O)N1CCC[C@H](N1)C(=O)OCC(C)(C)C2` (atropisomer, axis not shown) [Example A683]: the IC50 with NCI-H358 (K-Ras G12C) was 10 to 100 nM; on K-Ras G12C it was 10 to 100 nM; at K-Ras G13C it was below 10 nM; on KRAS G12D, 100 to 1000 nM; on KRAS G12V, 100 to 1000 nM; at KRAS WT, 100 to 1000 nM. Further, the IC50 on KRAS G13D was 100 to 1000 nM; at KRAS Q61H, 10 to 100 nM; at NRAS Q61R, 100 to 1000 nM; on NRAS WT it was 100 to 1000 nM.

As to `C=CC(=O)N1CC[C@H](C(=O)N(C)[C@H](C(=O)N[C@H]2Cc3cccc(c3)-c3ccc4c(c3)c(c(-c3cccnc3[C@H](C)OC)n4CC)CC(C)(C)COC(=O)[C@@H]3CCCN(N3)C2=O)C(C)(C)F)C1` (atropisomer, axis not shown) [Example A693], the IC50 with NCI-H358 (K-Ras G12C) is 100 to 1000 nM; on K-Ras G12C, 100 to 1000 nM; at K-Ras G13C, 1000 to 10000 nM; at KRAS G12D, above 10000 nM; at KRAS G12V, 1000 to 10000 nM; on KRAS WT it was 1000 to 10000 nM. The IC50 at KRAS G13D, at KRAS Q61H, on NRAS Q61R and at NRAS WT was 1000 to 10000 nM in each case.

With `C=CC(=O)N1CCC2(CCN(C(=O)N(C)[C@H](C(=O)N[C@H]3Cc4nc(cs4)-c4ccc5c(c4)c(c(-c4cccnc4[C@H](C)OC)n5CC)CC(C)(C)COC(=O)[C@@H]4CCCN(N4)C3=O)C(C)C)CC2)C1` (atropisomer, axis not shown) [Example A698], the IC50 with NCI-H358 (K-Ras G12C) fell in the range of 10 to 100 nM; on K-Ras G12C, 10 to 100 nM; on K-Ras G13C, 10 to 100 nM; on KRAS G12D, 100 to 1000 nM; at KRAS G12V, 100 to 1000 nM; on KRAS WT, 100 to 1000 nM. Also, the IC50 is 100 to 1000 nM on KRAS G13D, 10 to 100 nM at KRAS Q61H, 100 to 1000 nM at NRAS Q61R and 100 to 1000 nM on NRAS WT.

Consider `CCn1c(-c2cccnc2[C@H](C)OC)c2c3cc(ccc31)-c1csc(n1)C[C@H](NC(=O)[C@H](C(C)C)N(C)C(=O)N1CCN(C(=O)/C=C/CN(C)C)C3(CC3)C1)C(=O)N1CCC[C@H](N1)C(=O)OCC(C)(C)C2` (atropisomer, axis not shown) [Example A701], for which the IC50 with NCI-H358 (K-Ras G12C) was in the range of 10 to 100 nM; on K-Ras G12C, 10 to 100 nM; on K-Ras G13C it was 100 to 1000 nM; at KRAS G12D, 100 to 1000 nM; on KRAS G12V, 100 to 1000 nM; at KRAS WT, 100 to 1000 nM. Moreover, the IC50 at KRAS G13D lay within 100 to 1000 nM; at KRAS Q61H it was 10 to 100 nM; on NRAS Q61R it was 100 to 1000 nM; on NRAS WT it was 100 to 1000 nM.
